ChEMBL document CHEMBL1149802, “Chemiluminescent high-throughput microassay applied to imidazo[2,1-b]thiazole derivatives as potential acetylcholinesterase and butyrylcholinesterase inhibitors” (Eur J Med Chem, 2008)
pIC50: −log10 of the molar value.

Molecular target: Acetylcholinesterase (Electrophorus electricus, UniProt O42275)
Assay: Inhibition of electric eel acetylcholine esterase type V-S in presence of acetylcholine substrate by chemiluminescent assay

Acetylcholinesterase, sequence (O42275 whole entry): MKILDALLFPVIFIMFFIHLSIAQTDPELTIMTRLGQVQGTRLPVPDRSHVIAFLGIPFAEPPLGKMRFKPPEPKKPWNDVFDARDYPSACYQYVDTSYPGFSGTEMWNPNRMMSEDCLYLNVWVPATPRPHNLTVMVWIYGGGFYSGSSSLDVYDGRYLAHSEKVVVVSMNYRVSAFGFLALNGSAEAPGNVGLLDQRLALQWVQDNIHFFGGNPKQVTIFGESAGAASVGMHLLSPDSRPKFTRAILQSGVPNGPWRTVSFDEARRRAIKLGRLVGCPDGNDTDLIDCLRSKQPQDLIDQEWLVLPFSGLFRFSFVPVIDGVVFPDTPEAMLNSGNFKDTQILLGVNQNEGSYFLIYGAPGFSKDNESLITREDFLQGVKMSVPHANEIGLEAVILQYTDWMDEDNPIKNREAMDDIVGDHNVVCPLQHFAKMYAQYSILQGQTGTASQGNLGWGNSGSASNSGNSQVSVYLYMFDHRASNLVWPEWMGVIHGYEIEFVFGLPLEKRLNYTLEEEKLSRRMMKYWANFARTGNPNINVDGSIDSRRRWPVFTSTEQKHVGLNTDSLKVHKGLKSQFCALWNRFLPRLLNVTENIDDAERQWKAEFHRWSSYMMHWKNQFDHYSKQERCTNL

Structure (SMILES)	pIC50
CC(=O)N1CCN(/N=C/c2c(C)nc3sccn23)C1=O	4.46
CC(=O)N1CCN(/N=C/c2c(Cl)nc3sccn23)C1=O	4.22
O=C(c1ccccc1)N1CCN(/N=C/c2c(Cl)nc3sccn23)C1=O	5.38
